Laboratory results published in ChEMBL document CHEMBL6078619, “Targeting focal adhesion kinase (FAK) in cancer therapy: A recent update on inhibitors and PROTAC degraders” (Eur J Med Chem, 2024).

Tests used:
ECa-109 cell line = assay: Antiproliferative activity against human EC109 cells; assay type: functional, cell-based
HGC-27 = assay: Antiproliferative activity against human HGC-27 cells; assay type: functional, cell-based
DU-145 = assay: Antiproliferative activity against human DU-145 cells; assay type: functional, cell-based
Histone deacetylase 2 = Histone deacetylase 2 (Homo sapiens, UniProt Q92769); assay: Inhibition of HDAC2 (unknown origin)
MCF7 [1] = assay: Antiproliferative activity against human MCF7 cells; assay type: functional, cell-based
MGC-803 [2] = assay: Antiproliferative activity against human MGC-803 cells; assay type: functional, cell-based
TE-1 = assay: Antiproliferative activity against human TE-1 cells; assay type: functional, cell-based
BGC-823 = assay: Antiproliferative activity against human BGC-823 cells; assay type: functional, cell-based
Histone deacetylase 3 = Histone deacetylase 3 (Homo sapiens, UniProt O15379); assay: Inhibition of HDAC3 (unknown origin)
HCT-116 [3] = assay: Antiproliferative activity against human HCT-116 cells; assay type: functional, cell-based
[4] = Antiproliferative activity against human PC-3 cells; assay type: functional, cell-based
A549 [5] = assay: Antiproliferative activity against human A549 cells; assay type: functional, cell-based
KYSE-450 = assay: Antiproliferative activity against human KYSE-450 cells; assay type: functional, cell-based
Histone deacetylase 1 = Histone deacetylase 1 (Homo sapiens, UniProt Q13547); assay: Inhibition of HDAC1 (unknown origin)
NCI-H520 = assay: Antiproliferative activity against human NCI-H520 cells; assay type: functional, cell-based
MDA-MB-231 [6] = assay: Antiproliferative activity against human MDA-MB-231 cells; assay type: functional, cell-based
HCT-116 [7] = assay: Cytotoxicity against human HCT-116 cells; assay type: functional, cell-based
DLD-1 = assay: Cytotoxicity against human DLD1 cells assessed as growth inhibition; assay type: functional, cell-based
[8] = Oral bioavailability in human at 10 mg/kg; assay type: ADME, organism-based; details: in vivo
HCT-15 = assay: Antiproliferative activity against human HCT-15 cells assessed as reduction in cell viability incubated for 48 hrs by MTT assay; assay type: functional, cell-based; details: HCT-15, 48 h
HepG2 [9] = assay: Antiproliferative activity against human HepG2 cells assessed as reduction in cell viability incubated for 48 hrs by MTT assay; assay type: functional, cell-based; details: HepG2, 48 h
A549 [10] = assay: Antiproliferative activity against human A549 cells assessed as reduction in cell viability incubated for 48 hrs by MTT assay; assay type: functional, cell-based; details: A549, 48 h
[11] = Half life in human at 10 mg/kg, po by LC-MS/MS analysis; assay type: ADME, organism-based; details: in vivo
MDA-MB-231 [12] = assay: Antiproliferative activity against human MDA-MB-231 cells assessed as reduction in cell viability incubated for 48 hrs by MTT assay; assay type: functional, cell-based; details: MDA-MB-231, 48 h
Focal adhesion kinase 1 [13] = molecular target: T1, Focal adhesion kinase 1 (Homo sapiens, UniProt Q05397); assay: Inhibition of FAK (unknown origin)
Target sequence in this assay (Q05397 whole entry): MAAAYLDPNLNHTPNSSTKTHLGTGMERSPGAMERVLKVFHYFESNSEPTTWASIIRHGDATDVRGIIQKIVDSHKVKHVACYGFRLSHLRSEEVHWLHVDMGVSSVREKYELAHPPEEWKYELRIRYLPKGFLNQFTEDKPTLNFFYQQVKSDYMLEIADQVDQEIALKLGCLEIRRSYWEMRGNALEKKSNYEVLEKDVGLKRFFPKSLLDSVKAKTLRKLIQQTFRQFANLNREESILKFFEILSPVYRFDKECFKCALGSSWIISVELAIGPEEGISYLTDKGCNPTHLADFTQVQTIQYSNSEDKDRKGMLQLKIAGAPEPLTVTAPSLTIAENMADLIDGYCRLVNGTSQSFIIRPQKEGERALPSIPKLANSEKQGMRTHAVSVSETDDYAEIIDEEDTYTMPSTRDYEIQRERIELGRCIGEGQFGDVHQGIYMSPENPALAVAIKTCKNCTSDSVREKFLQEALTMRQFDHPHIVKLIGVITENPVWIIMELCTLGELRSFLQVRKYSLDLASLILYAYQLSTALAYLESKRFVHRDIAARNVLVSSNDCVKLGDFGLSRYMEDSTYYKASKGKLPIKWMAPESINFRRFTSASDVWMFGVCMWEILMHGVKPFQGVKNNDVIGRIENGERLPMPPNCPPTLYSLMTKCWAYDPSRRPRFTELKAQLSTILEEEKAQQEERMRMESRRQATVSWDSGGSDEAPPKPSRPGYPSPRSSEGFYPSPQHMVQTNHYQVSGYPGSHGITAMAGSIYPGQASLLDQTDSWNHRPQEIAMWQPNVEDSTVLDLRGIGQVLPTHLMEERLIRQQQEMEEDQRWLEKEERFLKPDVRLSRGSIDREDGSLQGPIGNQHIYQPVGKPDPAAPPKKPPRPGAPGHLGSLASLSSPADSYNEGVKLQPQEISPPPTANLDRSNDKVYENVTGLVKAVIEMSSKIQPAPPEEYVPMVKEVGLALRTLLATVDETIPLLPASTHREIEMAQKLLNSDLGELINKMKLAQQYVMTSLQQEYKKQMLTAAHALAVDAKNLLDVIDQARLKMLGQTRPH

[14] = Half life in human at 1 mg/kg, iv by LC-MS/MS analysis; assay type: ADME, organism-based; details: in vivo
MCF7 [15] = assay: Antiproliferative activity against human MCF7 cells assessed as reduction in cell viability incubated for 48 hrs by MTT assay; assay type: functional, cell-based; details: MCF7, 48 h
U-87 MG = assay: Antiproliferative activity against human U-87 MG cells assessed as reduction in cell viability incubated for 48 hrs by MTT assay; assay type: functional, cell-based, U-87MG ATCC
PANC-1 = assay: Antiproliferative activity against human PANC-1 cells assessed as reduction in cell viability incubated for 48 hrs by MTT assay; assay type: functional, cell-based; details: PANC-1, 48 h
[16] = Antiproliferative activity against human BEAS-2B cells assessed as reduction in cell viability incubated for 48 hrs by MTT assay; assay type: toxicity, cell-based
[17] = Antiproliferative activity against HUVEC cells assessed as cell growth inhibition measured after 72 hrs by crystal violet staining based analysis; assay type: toxicity; details: human
BXPC-3 = assay: Antiproliferative activity against human BXPC-3 cells assessed as reduction in cell viability incubated for 48 hrs by MTT assay; assay type: functional, cell-based; details: BXPC-3, 48 h
SGC-7901 = assay: Antiproliferative activity against human SGC-7901 cells assessed as reduction in cell viability incubated for 72 hrs by MTT assay; assay type: functional, cell-based; details: SGC-7901, 72 h
A-375 = assay: Antiproliferative activity against human A-375 cells assessed as reduction in cell viability incubated for 72 hrs by MTT assay; assay type: functional, cell-based; details: A-375, 72 h
MCF7 [18] = assay: Antiproliferative activity against human MCF7 cells assessed as reduction in cell viability incubated for 72 hrs by MTT assay; assay type: functional, cell-based; details: MCF7, 72 h
HepG2 [19] = assay: Antiproliferative activity against human HepG2 cells assessed as reduction in cell viability incubated for 72 hrs by MTT assay; assay type: functional, cell-based; details: HepG2, 72 h
[20] = molecular target: T2, von Hippel-Lindau disease tumor suppressor/Bromodomain-containing protein 4 (Homo sapiens, UniProt O60885+P40337); assay: PROTAC activity at BRD4/VHL E3 ligase in human HEK293 cells assessed as degradation of BRD4 incubated for 18 hrs by Nano-Glo HiBiT assay; assay type: cell-based
[21] = Half life in human at 20 mg/kg, po; assay type: ADME, organism-based; details: in vivo
[22] = molecular target: T2, von Hippel-Lindau disease tumor suppressor/Bromodomain-containing protein 4; assay: PROTAC activity at BRD4/VHL E3 ligase in human HEK293 cells assessed as maximal degradation of BRD4 at 10 nM incubated for 18 hrs by Nano-Glo HiBiT assay relative to control; assay type: cell-based
[23] = Half life in human plasma; assay type: ADME, cell-free
Focal adhesion kinase 1 [24] = molecular target: T1, Focal adhesion kinase 1; assay: Inhibition of FAK (unknown origin) at 0.5 uM relative to control
Target sequence in this assay (Q05397 2-1052 limits assumed): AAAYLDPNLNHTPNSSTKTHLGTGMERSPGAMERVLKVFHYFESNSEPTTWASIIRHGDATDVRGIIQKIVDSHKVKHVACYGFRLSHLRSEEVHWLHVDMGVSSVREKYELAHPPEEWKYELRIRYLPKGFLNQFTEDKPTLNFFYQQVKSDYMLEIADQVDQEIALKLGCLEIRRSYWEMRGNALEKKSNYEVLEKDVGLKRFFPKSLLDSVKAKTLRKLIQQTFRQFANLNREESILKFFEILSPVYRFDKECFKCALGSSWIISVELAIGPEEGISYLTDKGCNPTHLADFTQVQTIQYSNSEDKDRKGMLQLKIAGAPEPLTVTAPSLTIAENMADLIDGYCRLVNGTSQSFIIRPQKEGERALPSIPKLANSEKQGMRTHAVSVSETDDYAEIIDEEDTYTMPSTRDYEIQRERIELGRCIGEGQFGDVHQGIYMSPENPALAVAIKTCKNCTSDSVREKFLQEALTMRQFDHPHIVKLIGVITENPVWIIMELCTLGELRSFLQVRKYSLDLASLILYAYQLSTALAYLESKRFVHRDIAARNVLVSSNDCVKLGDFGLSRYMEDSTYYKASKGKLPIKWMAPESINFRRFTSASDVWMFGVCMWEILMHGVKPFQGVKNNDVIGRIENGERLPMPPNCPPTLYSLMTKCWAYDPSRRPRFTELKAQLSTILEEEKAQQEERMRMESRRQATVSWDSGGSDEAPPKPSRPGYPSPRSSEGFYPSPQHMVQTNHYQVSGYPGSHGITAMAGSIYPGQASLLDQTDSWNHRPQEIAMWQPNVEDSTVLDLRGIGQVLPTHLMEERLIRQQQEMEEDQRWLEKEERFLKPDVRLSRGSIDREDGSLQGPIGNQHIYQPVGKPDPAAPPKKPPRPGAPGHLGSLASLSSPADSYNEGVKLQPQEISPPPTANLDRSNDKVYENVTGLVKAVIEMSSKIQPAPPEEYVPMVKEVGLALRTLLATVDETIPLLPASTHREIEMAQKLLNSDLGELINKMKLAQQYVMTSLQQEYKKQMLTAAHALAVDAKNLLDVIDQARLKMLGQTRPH

Focal adhesion kinase 1 [25] = molecular target: T1, Focal adhesion kinase 1; assay: Inhibition of FAK (unknown origin) at 0.1 uM relative to control
Target sequence in this assay (Q05397 2-1052 limits assumed): as above

HeLa = assay: Antiproliferative activity against human HeLa cells assessed as reduction in cell viability by MTT assay; assay type: functional, cell-based
HCT-116 [26] = assay: Antiproliferative activity against human HCT-116 cells assessed as reduction in cell viability by MTT assay; assay type: functional, cell-based
MDA-MB-231 [27] = assay: Antiproliferative activity against human MDA-MB-231 cells assessed as reduction in cell viability by MTT assay; assay type: functional, cell-based
Insulin receptor = Insulin receptor (Homo sapiens, UniProt P06213); assay: Inhibition of INSR (unknown origin)
MGC-803 [28] = assay: Antitumor activity against human MGC-803 cells xenografted in nude mouse assessed as tumor inhibition at 20 mg/kg, ip administered once every two days for 21 days relative to control; assay type: functional; parameters: scale not given: the % may be the effect or the level left; details: time 21 day

Chain of Insulin receptor (P06213 28-758 limits assumed): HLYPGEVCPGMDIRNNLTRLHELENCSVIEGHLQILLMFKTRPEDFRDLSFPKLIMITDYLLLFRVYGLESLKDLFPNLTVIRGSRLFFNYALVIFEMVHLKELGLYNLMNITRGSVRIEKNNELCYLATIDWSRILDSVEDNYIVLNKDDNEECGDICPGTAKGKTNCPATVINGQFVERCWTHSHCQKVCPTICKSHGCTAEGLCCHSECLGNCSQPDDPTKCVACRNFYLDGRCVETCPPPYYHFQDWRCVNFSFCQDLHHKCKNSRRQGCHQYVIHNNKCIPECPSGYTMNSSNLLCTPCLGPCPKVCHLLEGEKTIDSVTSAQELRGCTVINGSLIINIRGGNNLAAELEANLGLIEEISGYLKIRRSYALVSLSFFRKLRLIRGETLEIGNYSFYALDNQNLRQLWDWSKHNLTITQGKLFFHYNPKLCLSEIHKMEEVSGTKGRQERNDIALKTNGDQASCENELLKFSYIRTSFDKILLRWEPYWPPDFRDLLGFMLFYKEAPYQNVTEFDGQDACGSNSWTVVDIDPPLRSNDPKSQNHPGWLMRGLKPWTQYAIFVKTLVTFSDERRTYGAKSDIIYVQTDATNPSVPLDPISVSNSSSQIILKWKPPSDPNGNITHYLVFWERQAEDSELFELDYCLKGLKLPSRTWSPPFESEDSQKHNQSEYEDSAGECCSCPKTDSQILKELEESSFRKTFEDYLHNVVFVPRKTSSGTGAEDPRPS
Chain of Insulin receptor (P06213 763-1382 limits assumed): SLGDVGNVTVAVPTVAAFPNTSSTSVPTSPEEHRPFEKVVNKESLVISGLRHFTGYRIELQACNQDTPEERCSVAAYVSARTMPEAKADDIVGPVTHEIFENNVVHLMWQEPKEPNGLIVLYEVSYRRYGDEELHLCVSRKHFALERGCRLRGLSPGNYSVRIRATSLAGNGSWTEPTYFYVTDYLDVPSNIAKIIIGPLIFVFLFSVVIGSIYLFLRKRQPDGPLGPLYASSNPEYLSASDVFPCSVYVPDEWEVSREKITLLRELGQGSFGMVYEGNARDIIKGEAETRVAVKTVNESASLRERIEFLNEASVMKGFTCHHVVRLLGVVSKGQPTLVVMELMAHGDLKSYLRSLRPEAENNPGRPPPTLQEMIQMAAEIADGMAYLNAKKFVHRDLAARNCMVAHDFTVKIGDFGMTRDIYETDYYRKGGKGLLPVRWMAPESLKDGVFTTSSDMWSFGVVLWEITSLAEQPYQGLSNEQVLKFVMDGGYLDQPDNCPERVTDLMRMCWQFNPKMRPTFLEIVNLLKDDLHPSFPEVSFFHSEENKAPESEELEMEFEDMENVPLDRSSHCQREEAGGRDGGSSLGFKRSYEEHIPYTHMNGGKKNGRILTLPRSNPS
T2 sequence (P40337 whole entry, looked up, other chains not shown): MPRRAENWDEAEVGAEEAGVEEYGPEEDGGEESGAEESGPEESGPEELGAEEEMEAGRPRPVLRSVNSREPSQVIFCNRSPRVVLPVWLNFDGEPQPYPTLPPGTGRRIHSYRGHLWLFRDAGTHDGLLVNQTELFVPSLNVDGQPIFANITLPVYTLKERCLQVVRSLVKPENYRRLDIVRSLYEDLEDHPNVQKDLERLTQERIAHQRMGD
Chain of Histone deacetylase 2 (Q92769 whole entry): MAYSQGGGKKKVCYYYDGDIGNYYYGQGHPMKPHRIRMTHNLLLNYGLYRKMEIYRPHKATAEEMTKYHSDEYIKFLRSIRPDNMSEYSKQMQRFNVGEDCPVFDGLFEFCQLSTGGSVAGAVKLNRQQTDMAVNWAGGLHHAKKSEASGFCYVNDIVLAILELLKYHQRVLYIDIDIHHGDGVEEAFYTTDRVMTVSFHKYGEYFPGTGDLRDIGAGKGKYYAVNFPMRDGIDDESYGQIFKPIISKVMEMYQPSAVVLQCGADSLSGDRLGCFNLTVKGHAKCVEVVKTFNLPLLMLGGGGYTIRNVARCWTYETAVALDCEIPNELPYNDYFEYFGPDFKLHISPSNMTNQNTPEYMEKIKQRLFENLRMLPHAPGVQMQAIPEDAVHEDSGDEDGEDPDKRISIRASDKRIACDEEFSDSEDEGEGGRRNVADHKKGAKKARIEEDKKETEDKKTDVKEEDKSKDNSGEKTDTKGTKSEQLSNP
Chain of Histone deacetylase 3 (O15379 whole entry): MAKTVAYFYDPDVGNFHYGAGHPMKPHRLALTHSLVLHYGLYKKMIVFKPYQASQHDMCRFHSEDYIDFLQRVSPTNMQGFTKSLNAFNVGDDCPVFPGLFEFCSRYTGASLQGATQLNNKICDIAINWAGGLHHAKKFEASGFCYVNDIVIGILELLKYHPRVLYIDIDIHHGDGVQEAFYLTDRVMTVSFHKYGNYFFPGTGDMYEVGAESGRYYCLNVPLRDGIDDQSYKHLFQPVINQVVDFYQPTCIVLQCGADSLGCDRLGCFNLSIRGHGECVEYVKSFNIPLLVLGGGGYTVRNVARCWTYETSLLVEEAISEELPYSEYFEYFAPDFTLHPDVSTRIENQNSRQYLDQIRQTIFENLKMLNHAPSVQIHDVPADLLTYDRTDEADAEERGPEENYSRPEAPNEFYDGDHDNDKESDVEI

CNC(=O)c1ccccc1Nc1nc(Nc2ccc(NC(=O)CCCCCCC(=O)NO)cc2)ncc1Cl
IC50 (ECa-109 cell line): 981 nM | IC50 (HGC-27): 512 nM | IC50 (DU-145): 467 nM | IC50 (Histone deacetylase 2): 629 nM | IC50 (MCF7 [1]): 834 nM | IC50 (MGC-803 [2]): 182 nM | IC50 (TE-1): 1130 nM | IC50 (BGC-823): 194 nM | IC50 (Histone deacetylase 3): 1050 nM | IC50 (HCT-116 [3]): 248 nM | IC50 [4]: 667 nM | IC50 (A549 [5]): 1790 nM | IC50 (KYSE-450): 619 nM | IC50 (Histone deacetylase 1): 526 nM | IC50 (NCI-H520): 2580 nM | IC50 (MDA-MB-231 [6]): 1890 nM

Clc1ccc(-c2cc(OCCCN3CCOCC3)c3cc(-c4ccco4)ccc3n2)cc1
IC50 (HCT-116 [7]): 2.96 µM | IC50 (DLD-1): 2090 nM

COc1cc2nc(-c3ccc(C(F)(F)F)cc3)cc(OCCCN3CCN(C)CC3)c2cc1OC
IC50 (HCT-116 [7]): 3.09 µM | IC50 (DLD-1): 2250 nM

Clc1cccc(Cn2ccc3cnc(NC4CCC(N5CCNCC5)CC4)nc32)c1 (stereo unspecified)
bioavailability [8]: 77.6% | IC50 (HCT-15): 900 nM | IC50 (HepG2 [9]): 3.5 µM | IC50 (A549 [10]): 800 nM | half-life [11]: 228 min | IC50 (MDA-MB-231 [12]): 1600 nM | IC50 (Focal adhesion kinase 1 [13]): 9.9 nM | half-life [14]: 145 min | IC50 (MCF7 [15]): 2000 nM | IC50 (U-87 MG): 12.7 µM | IC50 (PANC-1): 3.7 µM | IC50 at 48 h [16]: 7.1 µM | IC50 at 72 h [17]: 6.9 µM | IC50 (BXPC-3): 2300 nM

O=C(CSC1Nc2ccccc2C(=O)N1c1ccccc1)N1CCN(c2ccccc2Cl)CC1 (stereo unspecified)
IC50 (SGC-7901): 11.7 µM | IC50 (A-375): 7.13 µM | IC50 (MCF7 [18]): 7.92 µM | IC50 (HepG2 [19]): 5.56 µM

CC(=O)NCCC(=O)Nc1cc(Nc2ncc(Br)c(Nc3ccc(NC(C)=O)cc3NC(C)=O)n2)ccc1OCCF
IC50 (Focal adhesion kinase 1 [13]): 3.7 nM

CNC(=O)c1ccccc1Nc1nc(Nc2ccc(/C=C/C(=O)N3CCOCC3)cc2)ncc1Cl
IC50 (Focal adhesion kinase 1 [13]): 47.2 nM

COc1cc2nc(-c3ccc(C(F)(F)F)cc3)cc(OCCCNC3CCN(C)CC3)c2cc1OC
IC50 (HCT-116 [7]): 3.28 µM | IC50 (DLD-1): 1790 nM

CNC(=O)c1ccccc1Nc1cc(Nc2ccc(N3CCN(CC(=O)N[C@H](C(=O)N4C[C@H](O)C[C@H]4C(=O)N[C@@H](C)c4ccc(-c5scnc5C)cc4)C(C)(C)C)CC3)cc2OC)ncc1C(F)(F)F
DC50 [20]: 8.4 nM

COc1cc(C(=O)NC2CCNCC2)ccc1Nc1nc(Oc2cccc3c2C(=O)CC3)c2cc[nH]c2n1
half-life [21]: 245 min

CN(c1ncccc1CNc1nc(Nc2ccc(N3CCN(CCCCCCC(=O)NCCNc4cccc5c4C(=O)N(C4CCC(=O)NC4=O)C5=O)CC3)cc2)ncc1C(F)(F)F)S(C)(=O)=O (stereo unspecified)
Emax [22]: 85% | half-life [23]: > 195 min | inhibition (Focal adhesion kinase 1 [24]): 96.9% | inhibition (Focal adhesion kinase 1 [25]): 84.4%

O=C1CCc2cccc(Oc3nc(Nc4ccc(N5CCN(C(=S)SCCCN6CCOCC6)CC5)cc4)ncc3C(F)(F)F)c21
IC50 (HeLa): 270 nM | IC50 (HCT-116 [26]): 190 nM | IC50 (MDA-MB-231 [27]): 260 nM | IC50 (Insulin receptor): > 1000 nM

Cc1ncsc1-c1ccc(CNC(=O)[C@@H]2C[C@@H](O)CN2C(=O)[C@@H](NC(=O)CCOCCOc2ccc(Nc3ncc(C(F)(F)F)c(NCc4cccc(N(C)S(C)(=O)=O)c4)n3)cc2)C(C)(C)C)cc1
DC50 [20]: 3 nM

COc1cc2nc(-c3ccc(C(F)(F)F)cc3)cc(OCCCNCC3CCCO3)c2cc1OC (stereo unspecified)
IC50 (HCT-116 [7]): 5.68 µM | IC50 (DLD-1): 2480 nM

CCCS(=O)(=O)NCC(=O)N1CCN(c2ccc(Nc3ncc(Cl)c(Nc4ccccc4C(=O)NC)n3)cc2)CC1
IC50 (HeLa): 190 nM | IC50 (Focal adhesion kinase 1 [13]): 48 nM | IC50 (HCT-116 [26]): 170 nM | IC50 (MDA-MB-231 [27]): 180 nM | IC50 (Insulin receptor): 107 nM

CNC(=O)c1ccccc1Nc1nc(Nc2ccc(N3CCN(C(=S)SCCCN4CCOCC4)CC3)cc2)ncc1Cl
IC50 (HeLa): 2680 nM | IC50 (Focal adhesion kinase 1 [13]): 52 nM | IC50 (HCT-116 [26]): 640 nM | IC50 (MDA-MB-231 [27]): 4190 nM | IC50 (Insulin receptor): 168 nM

CNC(=O)c1ccccc1Nc1nc(Nc2ccc(N3CCOCC3)cc2OC)ncc1Cl
Activity (MGC-803 [28]): 53.53%
